Laboratory results from patent publication US10271543B2, “Systems and methods for cryopreservation of cells” (Cook General Biotechnology LLC, priority 2006, dated 2019).

Experiments:
[1] = test system: human spermatozoa; assay: Cytotoxicity of bound cholesterol on semen in culture (motility evaluations); format: cell-based; conditions: culture plates coated with 100 µl sterol solution; 1, 2, 4 and 8 hours of incubation
Description: In this experiment, liquefied semen samples were exposed to culture plates that had been coated with 100 µl of the sterol solution.

[2] = test system: human red blood cells; conditions: 3.3M (30%) glycerol; over a 2-3 log range in cooling rates; cited from earlier work

CC(C)CCC[C@@H](C)[C@H]1CC[C@H]2[C@@H]3CC=C4C[C@@H](O)CC[C@]4(C)[C@H]3CC[C@]12C [bound cholesterol, cholesterol]
cytotoxic effect (motility evaluations) [1]: no significant cytotoxic effect

OCC(O)CO [glycerol]
survival [2]: around 90%
